The text below walks through data of ChEMBL document CHEMBL2413004, “Synthesis and in vitro cytostatic activity of 1,2- and 1,3-diacylglycerophosphates of clofarabine” (Bioorg Med Chem, 2013).

Bounds are passed on as bounds.

As a reminder, the IC50 is the concentration that gives 50% inhibition. A higher IC50 goes with a need for much substance.

Common to all, as to assay type: functional, cell-based
One assay relates to HeLa. The assay is described as follows: Cytostatic activity against human HeLa cells after 48 hrs by MTT assay.
A further assay has as its system MCF7. Put plainly: Cytostatic activity against human MCF7 cells after 48 hrs by MTT assay. As to conditions: MCF7, 48 h. (Formazan colour is commonly taken as a measure of viable cells.)
The subject of the next assay is HL-60. Put plainly: Cytostatic activity against human HL60 cells after 48 hrs by MTT assay. The settings on record: HL-60, 48 h.
Another assay relates to A549. Put plainly: Cytostatic activity against human A549 cells after 48 hrs by MTT assay. The settings on record: A549, 48 h.

For `CCCCCCCCCCCCCCCC(=O)OCC(COC(=O)CCCCCCCCCCCCCCC)OP(=O)(O)OC[C@H]1O[C@@H](n2cnc3c(N)nc(Cl)nc32)[C@@H](F)[C@@H]1O`, the IC50 with HeLa was 100 µM; in the assay on MCF7, 30 µM; in the assay on HL-60, 55 µM; with A549, 90 µM.
As for `CCCCCCCCCCCCCC(=O)OCC(COC(=O)CCCCCCCCCCCCC)OP(=O)(O)OC[C@H]1O[C@@H](n2cnc3c(N)nc(Cl)nc32)[C@@H](F)[C@@H]1O`, the IC50 in the assay on HeLa was more than 100 µM; with MCF7 it was 40 µM; in the assay on HL-60, more than 100 µM; with A549, more than 100 µM.
With `CCCCCCCCCCCCCCCC(=O)OC[C@@H](COP(=O)(O)OC[C@H]1O[C@@H](n2cnc3c(N)nc(Cl)nc32)[C@@H](F)[C@@H]1O)OC(=O)CCCCCCCCCCCCCCC`, the IC50 is more than 100 µM with HeLa, more than 100 µM in the assay on MCF7, 10 µM with HL-60 and more than 100 µM in the assay on A549.
As to `CCCCCCCCCCCCCC(=O)OC[C@@H](COP(=O)(O)OC[C@H]1O[C@@H](n2cnc3c(N)nc(Cl)nc32)[C@@H](F)[C@@H]1O)OC(=O)CCCCCCCCCCCCC`, the half-inhibitory concentration (IC50) with HeLa was 50 µM; in the assay with MCF7 it was 40 µM; in the assay on HL-60, 0.8 µM; with A549 it was more than 100 µM.
The like results for `Nc1nc(Cl)nc2c1ncn2[C@@H]1O[C@H](CO)[C@@H](O)[C@@H]1F` [CLOFARABINE] were, in that order, 50 µM, 50 µM, 0.1 µM and 8 µM.
